Source: ChEMBL document CHEMBL3885861, “Open TG-GATES”

Species: Rattus norvegicus
Assay: Open TG-GATES - Regimen: Single
Format: toxicity, organism-based, Sprague-Dawley
Design: regimen Single, gender Male, age 6 weeks
Conditions: in vivo, ip, 0.3 mg/kg, route intraperitoneal injection, dose 300 ug/Kg, dose level High; for APTT / Bas / Eos / Fbg / Hb / Ht / Lym / MCH / MCHC / MCV / Mono / Neu / PT / Plat / RBC / Ret / WBC: tissue Blood; for KIDNEY_L / KIDNEY_R / KIDNEY_TOTAL: tissue Kidney; for LIVER: tissue Liver; for A/G / ALP / ALT / AST / BUN / CRE / Ca / Cl / DBIL / GLC / IP / K / LDH / Na / PL / RALB / TBIL / TC / TG / TP / gamma-GTP: tissue Plasma

## CC(=O)N[C@H]1[C@@H](O[C@@H]2O[C@H](CC(O)[C@H]3O[C@@H](n4ccc(=O)[nH]c4=O)[C@H](O)[C@@H]3O)[C@H](O)[C@H](O)[C@H]2NC(=O)/C=C/CC(C)C)O[C@H](CO)[C@@H](N)[C@@H]1O (some centres not stated) [TUNICAMYCIN]
3 h
  TERMINAL_BW: 222.1 g
  APTT: 21.6 s
  Bas: 0%
  Eos: 0.4%
  Fbg: 288.4 mg/dL
  Hb: 13.1 g/dL
  Ht: 40.3%
  Lym: 80.8%
  MCH: 20.8 pg
  MCHC: 32.5%
  MCV: 64 fL
  Mono: 3%
  Neu: 14.6%
  PT: 15.5 s
  Plat: 108.9 x10_4/uL
  RBC: 630.4 x10_4/ul
  Ret: 8%
  WBC: 89.8 x10_2/uL
  KIDNEY_L: 1 g
  KIDNEY_R: 1 g
  KIDNEY_TOTAL: 2 g
  LIVER: 10.1 g
  A/G: 1.2
  ALP: 1378 IU/L
  ALT: 38.4 IU/L
  AST: 70.6 IU/L
  BUN: 13.6 mg/dL
  CRE: 0.1 mg/dL
  Ca: 10.9 mg/dL
  Cl: 106.6 meq/L
  DBIL: 0 mg/dL
  GLC: 167.8 mg/dL
  IP: 8.4 mg/dL
  K: 4.4 meq/L
  LDH: 154 IU/L
  Na: 140.4 meq/L
  PL: 127.4 mg/dL
  RALB: 2.9 g/dL
  TBIL: 0.016 mg/dL
  TC: 68.6 mg/dL
  TG: 71 mg/dL
  TP: 5.3 g/dL
  gamma-GTP: 1.4 IU/L
6 h
  TERMINAL_BW: 219.8 g
  APTT: 21.5 s
  Bas: 0%
  Eos: 0.8%
  Fbg: 309.6 mg/dL
  Hb: 13.3 g/dL
  Ht: 41%
  Lym: 70.8%
  MCH: 20.8 pg
  MCHC: 32.5%
  MCV: 64 fL
  Mono: 3.2%
  Neu: 24.2%
  PT: 15.9 s
  Plat: 118.2 x10_4/uL
  RBC: 640.4 x10_4/ul
  Ret: 7.6%
  WBC: 84.7 x10_2/uL
  KIDNEY_L: 1 g
  KIDNEY_R: 1 g
  KIDNEY_TOTAL: 1.9 g
  LIVER: 9.1 g
  A/G: 1.2
  ALP: 1426.6 IU/L
  ALT: 41.4 IU/L
  AST: 73.6 IU/L
  BUN: 12.6 mg/dL
  CRE: 0.1 mg/dL
  Ca: 10.7 mg/dL
  Cl: 107 meq/L
  DBIL: 0.002 mg/dL
  GLC: 173.8 mg/dL
  IP: 9.1 mg/dL
  K: 4.5 meq/L
  LDH: 175.8 IU/L
  Na: 141 meq/L
  PL: 125 mg/dL
  RALB: 2.9 g/dL
  TBIL: 0.012 mg/dL
  TC: 71 mg/dL
  TG: 50.4 mg/dL
  TP: 5.4 g/dL
  gamma-GTP: 1.2 IU/L
9 h
  TERMINAL_BW: 212.4 g
  APTT: 20.8 s
  Bas: 0%
  Eos: 0.4%
  Fbg: 307 mg/dL
  Hb: 13.5 g/dL
  Ht: 41.4%
  Lym: 73.8%
  MCH: 20.9 pg
  MCHC: 32.7%
  MCV: 63.7 fL
  Mono: 2.8%
  Neu: 21.4%
  PT: 16.4 s
  Plat: 121.3 x10_4/uL
  RBC: 649.2 x10_4/ul
  Ret: 7.1%
  WBC: 84 x10_2/uL
  KIDNEY_L: 1 g
  KIDNEY_R: 1 g
  KIDNEY_TOTAL: 1.9 g
  LIVER: 8.8 g
  A/G: 1.2
  ALP: 1397.6 IU/L
  ALT: 43.4 IU/L
  AST: 86.6 IU/L
  BUN: 17.4 mg/dL
  CRE: 0.1 mg/dL
  Ca: 10.5 mg/dL
  Cl: 107.4 meq/L
  DBIL: 0 mg/dL
  GLC: 164.8 mg/dL
  IP: 9.4 mg/dL
  K: 4.4 meq/L
  LDH: 185.6 IU/L
  Na: 140.8 meq/L
  PL: 114.8 mg/dL
  RALB: 3 g/dL
  TBIL: 0.018 mg/dL
  TC: 68.2 mg/dL
  TG: 22.2 mg/dL
  TP: 5.4 g/dL
  gamma-GTP: 1 IU/L
24 h
  TERMINAL_BW: 228.7 g
  APTT: 23.4 s
  Bas: 0%
  Eos: 1.2%
  Fbg: 288 mg/dL
  Hb: 13.2 g/dL
  Ht: 41%
  Lym: 76.2%
  MCH: 20.1 pg
  MCHC: 32.2%
  MCV: 62.4 fL
  Mono: 3.6%
  Neu: 18.4%
  PT: 16.5 s
  Plat: 122.4 x10_4/uL
  RBC: 658.2 x10_4/ul
  Ret: 7.2%
  WBC: 97.7 x10_2/uL
  KIDNEY_L: 1 g
  KIDNEY_R: 1 g
  KIDNEY_TOTAL: 1.9 g
  LIVER: 10.8 g
  A/G: 1.3
  ALP: 1621.2 IU/L
  ALT: 55 IU/L
  AST: 86.6 IU/L
  BUN: 14.8 mg/dL
  CRE: 0.2 mg/dL
  Ca: 10.4 mg/dL
  Cl: 106.4 meq/L
  DBIL: 0 mg/dL
  GLC: 174.4 mg/dL
  IP: 7.5 mg/dL
  K: 4.5 meq/L
  LDH: 181.4 IU/L
  Na: 141.2 meq/L
  PL: 120.8 mg/dL
  RALB: 3 g/dL
  TBIL: 0.012 mg/dL
  TC: 58.4 mg/dL
  TG: 70.8 mg/dL
  TP: 5.3 g/dL
  gamma-GTP: 1.6 IU/L
